Measurements from ChEMBL document CHEMBL1201862, “PubChem BioAssay data set” (2004).
The source made the active and inactive calls.

Experiments:
Caspase-3 [1] = target: T1, Caspase-3 (Homo sapiens, UniProt P42574); assay: SAR Analysis of small molecule inhibitors of Sentrin-specific proteases (SENPs) using a Caspase-3 Selectivity assay. [Related pubchem assays (depositor defined):AID2540, AID2599, AID434973, AID489001]; format: functional
T1 sequence (P42574 whole entry): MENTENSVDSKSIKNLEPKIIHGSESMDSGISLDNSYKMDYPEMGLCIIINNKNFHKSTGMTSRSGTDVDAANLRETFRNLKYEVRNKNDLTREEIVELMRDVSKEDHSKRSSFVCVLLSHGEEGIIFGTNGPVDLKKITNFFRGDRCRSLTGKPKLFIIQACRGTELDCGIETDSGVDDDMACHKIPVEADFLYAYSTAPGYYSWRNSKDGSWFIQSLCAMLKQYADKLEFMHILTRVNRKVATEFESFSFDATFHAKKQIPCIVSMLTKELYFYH

[2] = target: T2, Sentrin-specific protease 8 (Homo sapiens, UniProt Q96LD8); assay: SENP8 protease inhibitors, SAR follow-up, biochemical, luminescence (AID 504501); format: functional
T2 sequence (Q96LD8 whole entry): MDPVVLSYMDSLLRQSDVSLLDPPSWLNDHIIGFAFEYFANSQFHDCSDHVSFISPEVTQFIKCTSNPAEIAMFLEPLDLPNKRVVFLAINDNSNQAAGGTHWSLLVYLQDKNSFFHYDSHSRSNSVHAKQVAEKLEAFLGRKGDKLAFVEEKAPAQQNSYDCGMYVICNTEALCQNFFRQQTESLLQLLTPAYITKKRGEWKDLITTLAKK

[3] = target: T3, Sentrin-specific protease 6 (Homo sapiens, UniProt Q9GZR1); assay: SAR Analysis of small molecule inhibitors of Sentrin-specific protease 6 (SENP6) using a Luminescent assay. [Related pubchem assays (depositor defined):AID2582, AID2599]; format: functional
T3 sequence (Q9GZR1 whole entry): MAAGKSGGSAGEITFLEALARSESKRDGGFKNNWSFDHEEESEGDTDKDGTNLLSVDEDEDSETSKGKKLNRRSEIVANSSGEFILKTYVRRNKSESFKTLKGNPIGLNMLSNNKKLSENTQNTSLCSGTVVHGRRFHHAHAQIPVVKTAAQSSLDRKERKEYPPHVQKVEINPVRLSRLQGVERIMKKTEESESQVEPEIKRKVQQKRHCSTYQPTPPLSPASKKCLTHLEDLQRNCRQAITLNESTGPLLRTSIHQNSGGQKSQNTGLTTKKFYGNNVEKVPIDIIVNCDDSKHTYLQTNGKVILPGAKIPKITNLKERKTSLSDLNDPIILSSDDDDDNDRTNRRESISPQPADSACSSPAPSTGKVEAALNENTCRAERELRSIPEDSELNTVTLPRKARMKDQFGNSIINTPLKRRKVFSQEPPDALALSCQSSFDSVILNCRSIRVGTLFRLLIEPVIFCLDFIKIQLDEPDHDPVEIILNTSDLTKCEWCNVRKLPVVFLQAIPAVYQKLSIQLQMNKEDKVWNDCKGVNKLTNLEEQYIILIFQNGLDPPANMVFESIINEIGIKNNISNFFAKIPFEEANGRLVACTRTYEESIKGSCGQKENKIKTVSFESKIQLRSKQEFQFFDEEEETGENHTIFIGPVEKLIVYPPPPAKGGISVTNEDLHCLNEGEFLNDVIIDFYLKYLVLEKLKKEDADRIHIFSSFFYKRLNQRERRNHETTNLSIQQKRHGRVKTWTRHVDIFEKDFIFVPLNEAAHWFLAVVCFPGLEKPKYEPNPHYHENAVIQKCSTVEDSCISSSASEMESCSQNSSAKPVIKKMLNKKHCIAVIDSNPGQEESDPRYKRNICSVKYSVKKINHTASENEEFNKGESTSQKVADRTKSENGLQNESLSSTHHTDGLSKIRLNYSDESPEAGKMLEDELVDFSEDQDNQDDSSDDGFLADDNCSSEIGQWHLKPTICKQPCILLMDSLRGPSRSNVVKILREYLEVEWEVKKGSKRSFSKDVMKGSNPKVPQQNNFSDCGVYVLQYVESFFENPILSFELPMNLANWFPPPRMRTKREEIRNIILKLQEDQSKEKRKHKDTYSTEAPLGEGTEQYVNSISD

[4] = target: T4, Sentrin-specific protease 7 (Homo sapiens, UniProt Q9BQF6); assay: SENP7 protease inhibitors, SAR follow-up, biochemical, luminescence (AID 504497); format: functional
T4 sequence (Q9BQF6 whole entry): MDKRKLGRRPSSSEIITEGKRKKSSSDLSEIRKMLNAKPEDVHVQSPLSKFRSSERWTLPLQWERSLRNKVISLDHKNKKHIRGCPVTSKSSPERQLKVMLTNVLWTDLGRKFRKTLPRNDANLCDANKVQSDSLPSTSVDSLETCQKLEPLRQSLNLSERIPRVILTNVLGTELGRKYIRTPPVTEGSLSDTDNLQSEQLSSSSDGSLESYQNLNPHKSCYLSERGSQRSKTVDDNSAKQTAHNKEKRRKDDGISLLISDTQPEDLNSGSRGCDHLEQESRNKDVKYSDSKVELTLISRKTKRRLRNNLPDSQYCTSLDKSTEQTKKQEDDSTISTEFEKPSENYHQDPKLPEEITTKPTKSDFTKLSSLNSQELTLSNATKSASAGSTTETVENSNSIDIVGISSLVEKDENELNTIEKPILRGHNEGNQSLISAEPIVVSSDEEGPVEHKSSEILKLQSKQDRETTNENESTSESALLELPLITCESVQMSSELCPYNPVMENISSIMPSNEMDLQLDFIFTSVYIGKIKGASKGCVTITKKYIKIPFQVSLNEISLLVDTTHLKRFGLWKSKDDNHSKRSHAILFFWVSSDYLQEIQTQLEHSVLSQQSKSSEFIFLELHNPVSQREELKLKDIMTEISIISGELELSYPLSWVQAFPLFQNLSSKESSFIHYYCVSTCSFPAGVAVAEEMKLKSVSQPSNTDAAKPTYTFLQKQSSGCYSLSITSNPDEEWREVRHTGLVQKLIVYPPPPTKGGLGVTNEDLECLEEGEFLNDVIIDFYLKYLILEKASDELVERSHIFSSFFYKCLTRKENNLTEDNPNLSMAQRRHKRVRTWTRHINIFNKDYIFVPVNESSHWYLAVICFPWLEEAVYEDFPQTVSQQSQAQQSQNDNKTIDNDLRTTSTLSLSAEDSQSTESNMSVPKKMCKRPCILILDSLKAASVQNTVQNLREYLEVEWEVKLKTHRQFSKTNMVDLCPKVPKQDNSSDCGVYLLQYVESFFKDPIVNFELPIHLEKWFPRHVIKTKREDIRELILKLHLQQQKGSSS

[5] = target: T5, Sphingosine 1-phosphate receptor 4 (Homo sapiens, UniProt O95977); assay: Late-stage fluorescence-based dose-response cell-based counterscreen assay to identify agonists of the Sphingosine 1-Phosphate Receptor 3 (S1P3): Sphingosine 1-Phosphate Receptor 4 (S1P4) agonist assay.; format: functional
T5 sequence (O95977 whole entry): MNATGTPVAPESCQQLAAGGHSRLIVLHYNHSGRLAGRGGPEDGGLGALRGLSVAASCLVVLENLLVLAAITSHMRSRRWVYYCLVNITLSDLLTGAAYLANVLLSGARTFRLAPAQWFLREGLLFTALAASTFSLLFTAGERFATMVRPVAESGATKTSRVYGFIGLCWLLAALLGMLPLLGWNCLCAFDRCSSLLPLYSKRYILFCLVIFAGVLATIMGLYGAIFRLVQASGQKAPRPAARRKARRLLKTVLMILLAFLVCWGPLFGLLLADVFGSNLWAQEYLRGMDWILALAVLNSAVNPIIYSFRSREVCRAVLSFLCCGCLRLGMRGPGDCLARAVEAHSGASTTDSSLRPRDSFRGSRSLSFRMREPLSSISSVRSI

[6] = target: Sphingosine 1-phosphate receptor 2 (Homo sapiens, UniProt O95136); assay: Late-stage fluorescence-based dose-response cell-based counterscreen assay to identify agonists of the Sphingosine 1-Phosphate Receptor 3 (S1P3): Sphingosine 1-Phosphate Receptor 2 (S1P2) agonist assay.; format: functional
Sphingosine 1-phosphate receptor 2, sequence (O95136 whole entry): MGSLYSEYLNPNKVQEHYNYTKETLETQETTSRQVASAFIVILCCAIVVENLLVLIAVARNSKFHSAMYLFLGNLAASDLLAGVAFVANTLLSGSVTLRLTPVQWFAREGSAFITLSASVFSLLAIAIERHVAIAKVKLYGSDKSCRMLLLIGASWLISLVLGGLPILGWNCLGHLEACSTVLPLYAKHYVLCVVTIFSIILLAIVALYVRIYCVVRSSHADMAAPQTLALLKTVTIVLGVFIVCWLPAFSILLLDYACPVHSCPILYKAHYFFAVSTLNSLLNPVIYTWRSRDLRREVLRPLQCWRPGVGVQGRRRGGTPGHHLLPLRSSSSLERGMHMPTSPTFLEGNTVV

[7] = target: Latent membrane protein 1 (Human herpesvirus 4 (strain B95-8), UniProt P03230); assay: TES1-eGFP NF-kB reporter inhibition versus Tet-On dsRED, dose response, selectivity assay for LMP1 NF-kB inhibitor project, imaging, HEK293T, dual-color eGFP/dsRED, cherry-picks (AID 588398); format: functional, cell-based
Latent membrane protein 1, sequence (P03230 whole entry): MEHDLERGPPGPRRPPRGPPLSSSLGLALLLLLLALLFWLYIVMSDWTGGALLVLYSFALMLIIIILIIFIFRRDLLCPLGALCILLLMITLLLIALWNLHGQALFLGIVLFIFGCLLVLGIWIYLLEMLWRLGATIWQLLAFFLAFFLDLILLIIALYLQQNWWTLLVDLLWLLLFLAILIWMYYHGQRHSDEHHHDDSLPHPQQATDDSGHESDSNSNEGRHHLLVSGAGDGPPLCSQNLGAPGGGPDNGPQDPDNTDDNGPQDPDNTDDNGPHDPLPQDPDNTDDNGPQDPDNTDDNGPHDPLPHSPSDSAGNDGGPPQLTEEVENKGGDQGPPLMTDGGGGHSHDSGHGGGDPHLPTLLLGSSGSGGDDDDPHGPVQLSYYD

BJ [8] = assay: cytotoxicity toward BJ-TERT fibroblasts, dose response, cell-based, RAS-independent, luminescence (AID 1933); format: functional; details: Homo sapiens
[9] = Luminescence Cell-Based Dose Response HTS to Identify Inhibitors of 5'UTR Stem-Loop Driven Prion Protein mRNA Translation in H4 Neuroglioblastoma Cells. [Related pubchem assays: 1827 (Project Summary), 1813 (Primary HTS)]; format: functional
cells [10] = format: functional, cell-based
cells [11] = format: functional, cell-based; remark: listed apart in the source
Vero [12] = assay: cells; format: functional; details: Chlorocebus sabaeus
BJ [13] = assay: cytotoxicity toward Ras-transformed BJeLR fibroblasts, dose response, cell-based, alamar blue fluorescence, cherrypicked samples (AID 2631); format: functional; details: Homo sapiens;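 further: confirmatory dose-response assay in RAS-dependent BJ fibroblasts engineered with TERT, LT and ST, with cytotoxicity read by fluorescence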
[14] = inhibitors of SNCA 5'UTR-driven reporter translation, confirmation, H4 neuroglioma cells, luminescence (AID 1988); format: functional, cell-based
BJ [15] = assay: cytotoxicity toward BJ-TERT-LT-ST fibroblasts, dose response, cell-based, RAS-independent, luminescence (AID 1935); format: functional; details: Homo sapiens;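 further: BJ fibroblasts immortalized with TERT plus LT and ST oncogenes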
[16] = NIH-3T3 fibroblast cytotoxicity, dose response, cytotoxicity control, cell-based, fluorescence, Alamar Blue, secondary assay (AID 2327); format: functional;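 further: NIH-3T3 mouse fibroblasts cultured with fluconazole at 8 µg/mL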
[17] = cytotoxicity in MIN6 insulinoma cells, dose response, cytotoxicity control, cell-based, mouse insulinoma (AID 2122); format: functional;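 further: confirmatory high-throughput counterscreen run to flag cytotoxic compounds; mouse MIN-6 beta cells carrying an insulin promoter eGFP reporter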
[18] = inhibitors of firefly luciferase expression or activity, dose response, H4 neuroglioma cells, luminescence (AID 1990); format: functional, cell-based
BJ [19] = assay: cells; format: functional, cell-based; details: Homo sapiens
[20] = cytotoxicity toward DRD oncogenic fibroblasts, dose response, cell-based, non-viral oncogenic, luminescence (AID 1934); format: functional; details: Homo sapiens
[21] = insulin promoter down-regulators in MIN6 cells, imaging, high-content screening, mouse beta cells (AID 1628); format: functional
[22] = C. albicans growth with fluconazole, confirmation, fluorescence, retest (AID 2467); format: functional, cell-based
[23] = tested on: Streptococcus sp. 'group A'; assay: growth inhibition of control SK(-) GAS strain, dose response, counter-screen for streptokinase expression inhibitor project, luminescence, kanamycin, BacTiterGlo, confirmation (AID 1900); format: functional, organism-based
Streptococcus = assay: Group A Streptococcus viability loss, dose response, counter-screen for streptokinase expression inhibitor project, luminescence, BacTiterGlo (AID 1915); format: functional, organism-based;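 further: potency for reduction of bacterial viability or growth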
Vero [24] = assay: host cell cytotoxicity of antiviral hits, dose response, cytotoxicity control for West Nile virus antiviral project, secondary assay (AID 1650); format: functional; details: Chlorocebus sabaeus
[25] = target: T4, Sentrin-specific protease 7; assay: SENP7 protease inhibitors, SAR follow-up, biochemical, luminescence, set 2 (AID 588600); format: functional
[26] = target: T2, Sentrin-specific protease 8; assay: SENP8 protease inhibitors, SAR follow-up, biochemical, luminescence, set 2 (AID 588601); format: functional
Caspase-3 [27] = target: T1, Caspase-3; assay: caspase-3 inhibitors as off-family protease, SAR follow-up, selectivity assay for SENP protease inhibitor project, biochemical, luminescence, set 2 (AID 588599); format: functional

CN(C)CCN(C(=O)c1ccc(Cl)s1)c1nc2ccc(S(C)(=O)=O)cc2s1
IC50 (Caspase-3 [1]): > 99 µM (inactive) | IC50 [2]: > 99 µM (inactive) | IC50 [3]: > 99 µM (inactive) | IC50 [4]: > 99 µM (inactive)

O=C(NC1CCCCC1)c1cc(C2CC2)on1
EC50 [5]: > 50 µM (inactive) | EC50 [6]: > 50 µM (inactive)

CCN(CC)c1ccc(/C=N/Nc2nc3ccccc3[nH]2)c(O)c1
AC50 [7]: 17.4 µM (active) | EC50 (BJ [8]): 1.22 µM (active) | EC50 [9]: 8.71 µM (active) | EC50 (cells [10]): 2.56 µM (active) | EC50 (cells [11]): 115 µM (active) | CC50 (Vero [12]): 1.59 µM (active) | EC50 (BJ [13]): 0.571 µM (inconclusive) | EC50 [14]: 2.64 µM (active) | EC50 (BJ [15]): 1.37 µM (inconclusive) | EC50 [16]: 22.6 µM (inconclusive) | IC50 [17]: 2.51 µM (active) | EC50 [18]: 6.26 µM (active) | EC50 (BJ [19]): 2.15 µM (active) | EC50 [20]: 1.37 µM (inconclusive) | IC50 [21]: 2.45 µM (active) | EC50 [22]: 1.42 µM (active) | EC50 [23]: 4.47 µM (active) | EC50 (Streptococcus): 7.8 µM (active) | CC50 (Vero [24]): 2.03 µM (active)

Fc1ccc(-c2noc(/C=C/c3ccccc3)n2)cc1
IC50 [25]: 3.38 µM (active) | IC50 (Caspase-3 [1]): 18 µM (active) | IC50 [26]: 2.98 µM (active) | IC50 [2]: > 99 µM (inactive) | IC50 [3]: > 99 µM (inactive) | IC50 (Caspase-3 [27]): 20.5 µM (active) | IC50 [4]: 8.8 µM (active)
